Laboratory results taken from publication PMC8966664 (Frontiers in Pharmacology, 2022).

Tests used:
pyrrole-protein adducts = assay: Toxicokinetic study: plasma kinetic profile of pyrrole-protein adducts; format: in vivo, Sprague Dawley rats; conditions: rats; GA 50 mg/kg + RTS 30 mg/kg vs RTS group
Experimental: For the toxicokinetic study, jugular vein cannulation was performed on rats on the day before drug administration. The right jugular vein was cannulated with a polyethylene tube (0.4 mm i.d. × 0.8 mm o.d., SIMS Portex, United Kingdom) for blood sampling. The rats were maintained in individual metabolic cages and fasted overnight with free access to water. […] Saline (0.2 ml) containing 25 units of heparin/mL was injected after each blood sampling for compensation of blood withdrawal. The blood samples were then centrifuged at 3,000 x g for 30 min, and plasma samples were harvested and stored at −20°C until use.
The pyrrole-protein adducts were measured according to our previously developed method ([Lin et al., 2011]; [Ruan et al., 2014]). Briefly, 50 mg liver or 100 µL serum/plasma was mixed with acetone and centrifuged at 900 x g for 10 min. […] After centrifuging at 20,000 x g for 30 min, the supernatants were collected and analyzed by LC-MS/MS according to our previously developed methods ([Ma et al., 2019]; [He et al., 2021a]; [Ma et al., 2021]). […]
Data are expressed as mean ± SD. […] Toxicokinetic parameters were calculated by noncompartmental methods using WinNonlin version 4.0 (Pharsight, Mountain View, CA, United States). […] The inhibition constant (K i ) value of GA was determined by the secondary Lineweaver-Burk plots. […]

RTS-induced liver injury = assay: Serum ALT, hepatic MDA and GSH in RTS-induced liver injury; format: in vivo, Sprague Dawley rats; conditions: rats
Experimental: EX and GA were dissolved in distilled water at 37°C for oral administration with the dosage of EX and GA as 500 mg/kg and 50 mg/kg. […] RTS was given following the last dose of distilled water/GA/EX. Detailed dosage regimens are described in Supplementary Figure S2. All rats were sacrificed at 48 h after the last dosing. Serum and liver samples were collected and stored at −80°C until use.
The serum alanine transaminase (ALT) level was measured by a kit obtained from Sigma-Aldrich Chemical Co. (St. Louis, MO, United States). The total bilirubin level was measured by the QuantiChromTM Bilirubin Assay kit according to the manufacturer’s instructions (BioAssay Systems, Hayward, CA, United States). Hepatic malondialdehyde (MDA) level was measured using a kit obtained from Nanjing Jiancheng Bioengineering Institute (Nanjing, China). Total GSH content in the liver was measured following a standard spectrophotometric method using Ellaman’s reagent.

rat CYP3A1 = assay: Enzymatic kinetic study with nifedipine in rat liver microsomes; format: biochemical
Experimental: The mixture was pre-incubated at 37°C for 15 min. […] The supernatant was filtered through a 0.22 µm membrane filter before the LC-MS/MS analysis.
Data are expressed as mean ± SD. The Student’s t test was used for the comparison between two groups. The one-way ANOVA followed with a post hoc Bonferroni’s multiple comparison test was used for the comparison among multiple groups. Toxicokinetic parameters were calculated by noncompartmental methods using WinNonlin version 4.0 (Pharsight, Mountain View, CA, United States). The enzyme kinetic parameters were estimated from the best fit line using least-squares linear regression of the inverse substrate concentration versus the inverse velocity (Lineweaver-Burk plots), and the mean values were used to calculate the Km and Vmax. […] The statistical significance was set as ^* p < 0.05, ^** p < 0.01 or ^*** p < 0.001.

[1] = substance alone (EX/GA single and multiple administrations; RTS single dose), 48 h

With `CC1(C)[C@@H](O)CC[C@]2(C)[C@H]3C(=O)C=C4[C@@H]5C[C@@](C)(C(=O)O)CC[C@]5(C)CC[C@@]4(C)[C@]3(C)CC[C@@H]12` [GA, 18β-glycyrrhetinic acid] the “reduction of AUC0–1440min of pyrrole-protein adducts” value (pyrrole-protein adducts) was 16.2%, the “RTS-induced hepatic GSH elevation” value (RTS-induced liver injury; EX or GA treatment + RTS, especially multiple dosage regimens) was “attenuated” and the “RTS-induced hepatic MDA elevation” value (RTS-induced liver injury; multiple doses + RTS 40 mg/kg) was “significantly attenuated”. The “RTS-induced serum ALT elevation” value (RTS-induced liver injury; multiple doses + RTS 40 mg/kg) was “significantly attenuated”, the “RTS-induced hepatic MDA elevation” value (RTS-induced liver injury; single dose + RTS 40 mg/kg) was “significantly reduced” and the “RTS-induced serum ALT elevation” value (RTS-induced liver injury; single dose + RTS 40 mg/kg) was “significantly reduced”. The “hepatic MDA level compared with vehicle” value (RTS-induced liver injury; [1]) was “unchanged”, the “serum ALT level compared with vehicle” value (RTS-induced liver injury; [1]) was “unchanged” and the “Lineweaver-Burk Slope” value (rat CYP3A1; GA 10 µM) was 1.424±0.040. For the same compound, the “Lineweaver-Burk Y-intercept when X=0.0” value (rat CYP3A1; GA 10 µM) was 0.174±0.017, the “Vmax of nifedipine metabolism” value (rat CYP3A1; GA 10 µM) was 6.326±0.079 nmol/min/mg protein and the “Lineweaver-Burk Slope” value (rat CYP3A1; GA 25 µM) was 2.671±0.041. For the same compound, the “Lineweaver-Burk Y-intercept when X=0.0” value (rat CYP3A1; GA 25 µM) was 0.144±0.018, the “Vmax of nifedipine metabolism” value (rat CYP3A1; GA 25 µM) was 6.586±0.083 nmol/min/mg protein and the “Lineweaver-Burk Slope” value (rat CYP3A1; GA 50 µM) was 4.916±0.064. For the same compound, the “Lineweaver-Burk Y-intercept when X=0.0” value (rat CYP3A1; GA 50 µM) was 0.137±0.028 and the “Vmax of nifedipine metabolism” value (rat CYP3A1; GA 50 µM) was 6.473±0.146 nmol/min/mg protein.
